Patent publication US12729377B2, “RNAi agents and compositions for inhibiting expression of angiopoietin-like 3 (ANGPTL3), and methods of use” (Arrowhead Pharmaceuticals, Inc., priority 2017, dated 2026)
In the oligonucleotide strings, read from the 5' end, every base follows the letter of its sugar. An asterisk marks phosphorothioate; unmarked linkages are phosphodiester. Other units and linkages are bracketed, terminal groups are in braces. A string of capitals states the bases alone. {NAG37} = tridentate N-acetyl-galactosamine targeting ligand, structure (NAG37)s; [invAb] = inverted abasic unit; m = 2'-O-methyl; f = 2'-fluoro

Key:
ANGPTL3 gene [1] = assay: Example 4: serum triglycerides in mice; format: in vivo
Procedure: (§1) To assess the in vivo activity of ANGPTL3 RNAi agents that are designed to target additional positions on the ANGPTL3 gene, six- to eight-week-old female C57bl/6 mice were used. Pre-dose serum samples were taken at day −1 after a four hour fast. At day 1, each mouse was given a single subcutaneous administration of 200 μl containing either 1 mg/kg (mpk) or 0.5 mg/kg (mpk) of an ANGPTL3 RNAi agent in D5W (dextrose in 5% water), or control (D5W) with no RNAi agent, according to the dosing groups recited in Table 17.
(§2) Each of the RNAi agents included a modified sequence and an N-acetyl-galactosamine-containing targeting ligand conjugated to the 5′ terminal end of the sense strand. (See Tables 3, 4, and 5 for modified sequences and targeting ligand structures). The injections were performed between the skin and muscle (i.e. subcutaneous injections) into the loose skin over the neck and shoulder area. Three (3) mice in each group were tested (n=3). Serum was collected on days 8, 15, 22, 29, and day 43 (Groups 1-3, 9, and 11-13 only). Mice were fasted for four hours prior to each collection. ANGPTL3 protein levels in serum were measured by ELISA assay (R&D Systems), according to the manufacturer's recommendations. Triglycerides, high-density lipoprotein (HDL), and total cholesterol in serum were measured on a Cobas® Integra 400 (Roche Diagnostics), according to the manufacturer's recommendations.
(§3) The ANGPTL3 protein levels, triglyceride levels, HDL levels, and total cholesterol levels for each animal were normalized. For normalization, the level of ANGPTL3 protein, triglyceride, HDL, and total cholesterol, respectively, for each animal at a time point, was divided by the pre-treatment level of expression in that animal (in this case at day −1) to determine the ratio of expression “normalized to pre-treatment.” Expression at a specific time point was then normalized to the D5W control group by dividing the “normalized to pre-treatment” ratio for an individual animal by the mean “normalized to pretreatment” ratio of all mice in the D5W control group.

ANGPTL3 gene [2] = assay: Example 4: serum LDL in mice; format: in vivo, C57bl/6 mice; details: for Avg LDL, normalized to pre-treatment and control: 1.0 mg/kg single SC injection on day 1, serum, n=3
Procedure: as §1, §2, §3

ANGPTL3 gene [3] = assay: Example 4: serum total cholesterol in mice; format: in vivo, C57bl/6 mice
Procedure: as §1, §2, §3

ANGPTL3 gene [4] = assay: Example 4: serum HDL in mice; format: in vivo, C57bl/6 mice
Procedure: as §1, §2, §3

ANGPTL3 protein [5] = assay: Example 4: serum ANGPTL3 protein by ELISA in mice; format: in vivo, C57bl/6 mice; details: for Avg ANGPTL3 (Average ANGPTL3 Protein Normalized to Pre-Treatment and Control): 1.0 mg/kg single subcutaneous dose on day 1, serum, female C57bl/6 mice
Procedure: as §1, §2, §3

ANGPTL3 gene [6] = assay: Example 7: serum LDL in mice; format: in vivo; parameters: key: ratio: (level/pre-treatment day -1 level) ÷ mean of D5W control group; details: 0.5 mg/kg single SC injection day 1, female C57bl/6 mice, n=3, ratio to D5W control
Procedure: (§4) To further assess the in vivo activity of additional ANGPTL3 RNAi agents that are designed to target position 304 on the ANGPTL3 gene, six- to eight-week-old female C57bl/6 mice were used. Pre-dose serum samples were taken at day −1 after a four hour fast. At day 1, each mouse was given a single subcutaneous administration of 200 μl containing 0.5 mg/kg (mpk) of an ANGPTL3 RNAi agent in D5W (dextrose in 5% water), or control (D5W) with no RNAi agent, according to the dosing groups recited in Table 31.
as §2, with “22,” for “22, 29,”, “29.” for “day 43 (Groups 1-3, 9, and 11-13 only).”, “Triglycerides, total cholesterol,” for “Triglycerides,”, “low-density lipoprotein (LDL)” for “total cholesterol”
(§5) The ANGPTL3 protein levels, triglyceride levels, total cholesterol levels, HDL levels, and LDL levels for each animal were normalized. For normalization, the level of ANGPTL3 protein, triglyceride, HDL, and total cholesterol, respectively, for each animal at a time point, was divided by the pre-treatment level of expression in that animal (in this case at day −1) to determine the ratio of expression “normalized to pre-treatment.” Expression at a specific time point was then normalized to the D5W control group by dividing the “normalized to pre-treatment” ratio for an individual animal by the mean “normalized to pretreatment” ratio of all mice in the D5W control group.

ANGPTL3 protein [7] = assay: Example 7: serum ANGPTL3 protein by ELISA in mice; format: in vivo, C57bl/6 mice; parameters: key: ratio: (level/pre-treatment day -1 level) ÷ mean of D5W control group
Procedure: as §4
as §2, with “22,” for “22, 29,”, “29.” for “day 43 (Groups 1-3, 9, and 11-13 only).”, “Triglycerides, total cholesterol,” for “Triglycerides,”, “low-density lipoprotein (LDL)” for “total cholesterol”
as §5

ANGPTL3 gene [8] = assay: Example 7: serum total cholesterol in mice; format: in vivo, C57bl/6 mice; parameters: key: ratio: (level/pre-treatment day -1 level) ÷ mean of D5W control group
Procedure: as §4
as §2, with “22,” for “22, 29,”, “29.” for “day 43 (Groups 1-3, 9, and 11-13 only).”, “Triglycerides, total cholesterol,” for “Triglycerides,”, “low-density lipoprotein (LDL)” for “total cholesterol”
as §5

ANGPTL3 gene [9] = assay: Example 7: serum triglycerides in mice; format: in vivo, C57bl/6 mice; parameters: key: ratio: (level/pre-treatment day -1 level) ÷ mean of D5W control group
Procedure: as §4
as §2, with “22,” for “22, 29,”, “29.” for “day 43 (Groups 1-3, 9, and 11-13 only).”, “Triglycerides, total cholesterol,” for “Triglycerides,”, “low-density lipoprotein (LDL)” for “total cholesterol”
as §5

ANGPTL3 gene [10] = assay: Example 7: serum HDL in mice; format: in vivo; parameters: key: ratio: (level/pre-treatment day -1 level) ÷ mean of D5W control group; details: 0.5 mg/kg single SC injection day 1, female C57bl/6 mice, n=3, ratio to D5W control
Procedure: as §4
as §2, with “22,” for “22, 29,”, “29.” for “day 43 (Groups 1-3, 9, and 11-13 only).”, “Triglycerides, total cholesterol,” for “Triglycerides,”, “low-density lipoprotein (LDL)” for “total cholesterol”
as §5

[11] = Day 8, 1.0 mg/kg single SC injection on day 1, n=3
[12] = Day 15, 1.0 mg/kg single SC injection on day 1, n=3
[13] = Day 22, 1.0 mg/kg single SC injection on day 1, n=3
[14] = Day 29, 1.0 mg/kg single SC injection on day 1, n=3
[15] = Day 43, 1.0 mg/kg single SC injection on day 1, n=3
[16] = Day 8, 0.5 mg/kg single SC injection on day 1, n=3
[17] = Day 15, 0.5 mg/kg single SC injection on day 1, n=3
[18] = Day 22, 0.5 mg/kg single SC injection on day 1, n=3
[19] = Day 29, 0.5 mg/kg single SC injection on day 1, n=3

“AD05487: RNAi agent duplex: antisense AM07233-AS, sense AM07232-SS (antisense mU*fA*mC*fUmGfAmUfCmAfAmAfUmAfUmGfUmUfGmAfG*mU; sense {NAG37}*[invAb]*mAmCmUmCmAmAmCmAfUfAfUmUmUmGmAmUmCmAmGmUmA*[invAb])” was tested, and the “Avg TG (Average Triglycerides Normalized to Pre-Treatment and Control)” value (ANGPTL3 gene [1]; Day 8, 1.0 mg/kg single subcutaneous dose on day 1, female C57bl/6 mice) was 0.776, the “Avg TG (Average Triglycerides Normalized to Pre-Treatment and Control)” value (ANGPTL3 gene [1]; Day 15, 1.0 mg/kg single subcutaneous dose on day 1, female C57bl/6 mice) was 0.912 and the “Avg TG (Average Triglycerides Normalized to Pre-Treatment and Control)” value (ANGPTL3 gene [1]; Day 22, 1.0 mg/kg single subcutaneous dose on day 1, female C57bl/6 mice) was 0.761. The “Avg TG (Average Triglycerides Normalized to Pre-Treatment and Control)” value (ANGPTL3 gene [1]; Day 29, 1.0 mg/kg single subcutaneous dose on day 1, female C57bl/6 mice) was 0.556, the “Avg TG (Average Triglycerides Normalized to Pre-Treatment and Control)” value (ANGPTL3 gene [1]; Day 43, 1.0 mg/kg single subcutaneous dose on day 1, female C57bl/6 mice) was 0.757 and the “Avg LDL, normalized to pre-treatment and control” value (shortened to “Avg LDL, normalized”) (ANGPTL3 gene [2]; Day 8) was 0.916. For the same substance, the “Avg LDL, normalized” value (ANGPTL3 gene [2]; Day 15) was 1.125, the “Avg LDL, normalized” value (ANGPTL3 gene [2]; Day 22) was 0.845 and the “Avg LDL, normalized” value (ANGPTL3 gene [2]; Day 29) was 0.744. For the same substance, the “Avg LDL, normalized” value (ANGPTL3 gene [2]; Day 43) was 0.989, the LDL levels reduced (ANGPTL3 gene [2]; day 29, single 1 mg/kg subcutaneous, C57bl/6 mice) was roughly 20% and the “Avg Total Chol, normalized to pre-treatment and control” value (shortened to “Avg Total Chol, normalized”) (ANGPTL3 gene [3]; [11]) was 0.728. The “Avg Total Chol, normalized” value (ANGPTL3 gene [3]; [12]) was 0.944, the “Avg Total Chol, normalized” value (ANGPTL3 gene [3]; [13]) was 0.697 and the “Avg Total Chol, normalized” value (ANGPTL3 gene [3]; [14]) was 0.560. For the same substance, the “Avg Total Chol, normalized” value (ANGPTL3 gene [3]; [15]) was 0.923, the “Avg HDL, normalized to pre-treatment and control” value (from here on “Avg HDL, normalized”) (ANGPTL3 gene [4]; [11]) was 0.716 and the “Avg HDL, normalized” value (ANGPTL3 gene [4]; [12]) was 0.918. The “Avg HDL, normalized” value (ANGPTL3 gene [4]; [13]) was 0.658, the “Avg HDL, normalized” value (ANGPTL3 gene [4]; [14]) was 0.745 and the “Avg HDL, normalized” value (ANGPTL3 gene [4]; [15]) was 0.934. For the same substance, the “Avg ANGPTL3 (Average ANGPTL3 Protein Normalized to Pre-Treatment and Control)” value (ANGPTL3 protein [5]; Day 8) was 0.173, the “Avg ANGPTL3 (Average ANGPTL3 Protein Normalized to Pre-Treatment and Control)” value (ANGPTL3 protein [5]; Day 15) was 0.170 and the “Avg ANGPTL3 (Average ANGPTL3 Protein Normalized to Pre-Treatment and Control)” value (ANGPTL3 protein [5]; Day 22) was 0.138. For the same substance, the “Avg ANGPTL3 (Average ANGPTL3 Protein Normalized to Pre-Treatment and Control)” value (ANGPTL3 protein [5]; Day 29) was 0.226, the “Avg ANGPTL3 (Average ANGPTL3 Protein Normalized to Pre-Treatment and Control)” value (ANGPTL3 protein [5]; Day 43) was 0.477 and the “ANGPTL3 protein normalized to pre-treatment and control” value (ANGPTL3 protein [5]; day 15, single 1 mg/kg subcutaneous, C57bl/6 mice) was 0.170. The “ANGPTL3 protein normalized to pre-treatment and control” value (ANGPTL3 protein [5]; day 22, single 1 mg/kg subcutaneous, C57bl/6 mice) was 0.138 and the “knockdown of ANGPTL3 protein” value (ANGPTL3 protein [5]; days 15 and 22, single 1 mg/kg subcutaneous, C57bl/6 mice) was roughly 75%.

With “AD05777: RNAi agent duplex: antisense AM07235-AS, sense AM07610-SS (antisense UACUGAUCAAAUAUGUUGAGC; sense GCUCAACNUNUUUGAUCAGUA; (NAG37)s GalNAc ligand; RNAi agent antisense strand modified sequence; RNAi agent sense strand modified sequence; modified_base 8, 10 n = 2′-O-methyl-2-aminoadenosine-3′-phosphate)” the “Avg LDL, normalized” value (ANGPTL3 gene [6]; Day 8) was 0.886, the “Avg LDL, normalized” value (ANGPTL3 gene [6]; Day 15) was 0.869 and the “Avg LDL, normalized” value (ANGPTL3 gene [6]; Day 22) was 0.966. For the same substance, the “Avg LDL, normalized” value (ANGPTL3 gene [6]; Day 29) was 1.224, the “Avg ANGPTL3, normalized to pre-treatment and control” value (from here on “Avg ANGPTL3, normalized”) (ANGPTL3 protein [7]; [16]) was 0.297 and the “Avg ANGPTL3, normalized” value (ANGPTL3 protein [7]; [17]) was 0.246. For the same substance, the “Avg ANGPTL3, normalized” value (ANGPTL3 protein [7]; [18]) was 0.257, the “Avg ANGPTL3, normalized” value (ANGPTL3 protein [7]; [19]) was 0.345 and the “Avg Total Chol, normalized” value (ANGPTL3 gene [8]; [16]) was 0.797. The “Avg Total Chol, normalized” value (ANGPTL3 gene [8]; [17]) was 0.800, the “Avg Total Chol, normalized” value (ANGPTL3 gene [8]; [18]) was 0.794 and the “Avg Total Chol, normalized” value (ANGPTL3 gene [8]; [19]) was 0.995. For the same substance, the “Avg TG, normalized to pre-treatment and control” value (“Avg TG, normalized” below) (ANGPTL3 gene [9]; [16]) was 0.755, the “Avg TG, normalized” value (ANGPTL3 gene [9]; [17]) was 0.702 and the “Avg TG, normalized” value (ANGPTL3 gene [9]; [18]) was 0.700. For the same substance, the “Avg TG, normalized” value (ANGPTL3 gene [9]; [19]) was 0.648, the “Avg HDL, normalized” value (ANGPTL3 gene [10]; Day 8) was 0.784 and the “Avg HDL, normalized” value (ANGPTL3 gene [10]; Day 15) was 0.768. For the same substance, the “Avg HDL, normalized” value (ANGPTL3 gene [10]; Day 22) was 0.801 and the “Avg HDL, normalized” value (ANGPTL3 gene [10]; Day 29) was 1.008.
